Laboratory results from ChEMBL document CHEMBL3272216 (J Med Chem, 1977).
Where a SMILES comes first, the peptide text is derived from it. Bridges are numbered along the chain shown (N, C = ends). [ ]: non-standard residue; d: D form. pGlu = O=C1CC[C@@H](C(=O)O)N1

Experiments:
Rattus norvegicus [1] = experiment: Induction of hypothermia in cold-exposed Sprague-Dawley rat compound administered intracisternally measured 60 mins post dose relative to neurotensin; type: functional
Rattus norvegicus [2] = species on record: Rattus norvegicus; experiment: Binding affinity to neurotensin receptor in rat mast cells at 1 ng to 10 ug after 15 mins relative to neurotensin; type: cell-based
[3] = Retention time of the compound in 0.01 M NH4OAc buffer at pH 4.5 by HPLC analysis; type: physicochemical

SMILES	Ratio (Rattus norvegicus [1])	Ratio (Rattus norvegicus [2])	Retention_time [3]
CC[C@H](C)[C@H](NC(=O)[C@@H](CCCCN)NC(=O)[C@@H]1CCCN1C(=O)[C@H](CCCNC(=N)N)NC(=O)[C@H](CCCNC(=N)N)NC(=O)[C@@H]1CCCN1C(=O)[C@H](CCCCN)NC(=O)[C@H](CC(N)=O)NC(=O)[C@H](CCC(=O)O)NC(=O)[C@H](Cc1ccc(O)cc1)NC(=O)[C@H](CC(C)C)NC(=O)[C@@H]1CCC(=O)N1)C(=O)N[C@@H](CC(C)C)C(=O)O	<1	3.4	6.4 min
CC[C@H](C)[C@H](NC(=O)[C@H](Cc1ccccc1)NC(=O)[C@@H]1CCCN1C(=O)[C@H](CCCN=C(N)N)NC(=O)[C@H](CCCN=C(N)N)NC(=O)[C@@H]1CCCN1C(=O)[C@H](CCCCN)NC(=O)[C@H](CC(N)=O)NC(=O)[C@H](CCC(=O)O)NC(=O)[C@H](Cc1ccc(O)cc1)NC(=O)[C@H](CC(C)C)NC(=O)[C@@H]1CCC(=O)N1)C(=O)N[C@@H](CC(C)C)C(=O)O	100	100	9.7 min
CC[C@H](C)[C@H](NC(=O)[C@H](Cc1ccc(O)cc1)NC(=O)[C@@H]1CCCN1C(=O)[C@@H](N)CCCNC(=N)N)C(=O)N[C@@H](CC(C)C)C(=O)O	–	–	10.4 min
CC[C@H](C)[C@H](NC(=O)[C@H](Cc1ccc(O)cc1)NC(=O)[C@@H]1CCCN1C(=O)[C@H](CCCNC(=N)N)NC(=O)[C@@H](N)CCCNC(=N)N)C(=O)N[C@@H](CC(C)C)C(=O)O [listing 1 of 2 here]	–	–	8.2 min
CC[C@@H](C)[C@H](NC(=O)[C@H](Cc1ccc(O)cc1)NC(=O)[C@@H]1CCCN1C(=O)[C@H](CCCNC(=N)N)NC(=O)[C@@H](N)CCCNC(=N)N)C(=O)N[C@@H](CC(C)C)C(=O)O	–	67	–
CC[C@H](C)[C@@H]1NC(=O)[C@H](Cc2ccc(O)cc2)NC(=O)[C@@H]2CCCN2C(=O)[C@H](CCCNC(=N)N)NC(=O)[C@H](CCCNC(=N)N)NC(=O)[C@@H]2CCCN2C(=O)[C@H](CCCCN)NC(=O)[C@H](CC(N)=O)NC(=O)[C@H](CCC(=O)O)NC(=O)[C@H](Cc2ccc(O)cc2)NC(=O)[C@@H](NC(=O)[C@@H]2CCC(=O)N2)CSSC[C@@H](C(=O)O)NC1=O ([pGlu]CYENKPRRPYIC-OH; disulfide 2-13)	100	3.4	5.3 min
CC[C@H](C)[C@H](NC(=O)[C@H](Cc1ccc(O)cc1)NC(=O)[C@@H]1CCCN1C(=O)[C@@H](N)CCCN=C(N)N)C(=O)N[C@@H](CC(C)C)C(=O)O	20	76	–
CC[C@H](C)[C@H](NC(=O)[C@H](Cc1ccc(O)cc1)NC(=O)[C@@H]1CCCN1C(=O)[C@H](CCCNC(=N)N)NC(=O)[C@@H](N)CCCNC(=N)N)C(=O)N[C@@H](CC(C)C)C(=O)O [listing 2 of 2 here]	25	–	–
CC[C@H](C)[C@H](NC(=O)[C@@H](Cc1ccccc1)NC(=O)[C@@H]1CCCN1C(=O)[C@H](CCCN=C(N)N)NC(=O)[C@H](CCCN=C(N)N)NC(=O)[C@@H]1CCCN1C(=O)[C@H](CCCCN)NC(=O)[C@H](CC(N)=O)NC(=O)[C@H](CCC(=O)O)NC(=O)[C@H](Cc1ccc(O)cc1)NC(=O)[C@H](CC(C)C)NC(=O)[C@@H]1CCC(=O)N1)C(=O)N[C@@H](CC(C)C)C(=O)O	1000	0.64	5.3 min
CC[C@H](C)[C@H](NC(=O)[C@H](Cc1ccc(O)cc1)NC(=O)[C@@H]1CCCN1C(=O)[C@H](CCCNC(=N)N)NC(=O)[C@H](CCCNC(=N)N)NC(=O)[C@@H]1CCCN1C(=O)[C@H](CCCCN)NC(=O)[C@H](CC(N)=O)NC(=O)[C@H](CCC(=O)O)NC(=O)[C@H](Cc1ccccc1)NC(=O)[C@H](CC(C)C)NC(=O)[C@@H]1CCC(=O)N1)C(=O)N[C@@H](CC(C)C)C(=O)O	100	102	4.9 min
CC[C@H](C)[C@H](NC(=O)[C@@H](CC(C)C)NC(=O)[C@@H]1CCCN1C(=O)[C@H](CCCNC(=N)N)NC(=O)[C@H](CCCNC(=N)N)NC(=O)[C@@H]1CCCN1C(=O)[C@H](CCCCN)NC(=O)[C@H](CC(N)=O)NC(=O)[C@H](CCC(=O)O)NC(=O)[C@H](Cc1ccc(O)cc1)NC(=O)[C@H](CC(C)C)NC(=O)[C@@H]1CCC(=O)N1)C(=O)N[C@@H](CC(C)C)C(=O)O	30	–	5.2 min
